How the values were obtained:
[1] = Stability of alpha-dicarbonyl metabolites under reaction conditions; assay type: in vitro ADME; details: low (50 μM) and high (500 μM) concentrations; student's t-test p < 0.05
[2] = biological target: T1, microsomal epoxide hydrolase (Homo sapiens, UniProt P07099); assay type: in vitro ADME; details: 1 μM elaidamide; 40 and 400 μM substrate; HLM
T1 sequence (P07099 1-455): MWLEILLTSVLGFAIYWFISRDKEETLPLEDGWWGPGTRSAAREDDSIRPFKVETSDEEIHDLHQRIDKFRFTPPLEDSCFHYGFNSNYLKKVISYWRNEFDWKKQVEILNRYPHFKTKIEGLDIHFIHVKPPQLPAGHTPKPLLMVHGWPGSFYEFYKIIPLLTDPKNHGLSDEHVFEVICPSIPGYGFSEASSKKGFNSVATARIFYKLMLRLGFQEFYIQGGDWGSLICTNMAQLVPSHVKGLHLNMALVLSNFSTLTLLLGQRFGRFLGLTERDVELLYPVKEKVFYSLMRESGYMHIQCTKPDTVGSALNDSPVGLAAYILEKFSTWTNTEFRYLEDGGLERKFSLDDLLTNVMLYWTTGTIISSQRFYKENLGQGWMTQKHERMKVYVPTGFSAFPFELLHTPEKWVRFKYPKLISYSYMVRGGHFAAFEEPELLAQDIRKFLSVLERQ

| inhibition of alpha-dicarbonyl formation by elaidamide [2] | SMILES | depletion under reaction conditions [1] |
| --- | --- | --- |
| – | O=CC=O [glyoxal] | no significant depletion |
| – | CC(=O)C=O [methylglyoxal] | only significant depletion after 60 min |
| 90% | CN1C(C(=O)Nc2nccs2)=C(O)c2ccccc2S1(=O)=O [sudoxicam, N-(2-thiazolyl)-4-hydroxy-2-methyl-2H-1,2-benzothiazine-3-carboxamide 1,1-dioxide] | – |

From article PMC8716319 (Toxicology, 2020)
